What was measured:
[1] = target: T1, Palmitoleoyl-protein carboxylesterase NOTUM (Homo sapiens, UniProt Q6P988)
T1 sequence (Q6P988 whole entry): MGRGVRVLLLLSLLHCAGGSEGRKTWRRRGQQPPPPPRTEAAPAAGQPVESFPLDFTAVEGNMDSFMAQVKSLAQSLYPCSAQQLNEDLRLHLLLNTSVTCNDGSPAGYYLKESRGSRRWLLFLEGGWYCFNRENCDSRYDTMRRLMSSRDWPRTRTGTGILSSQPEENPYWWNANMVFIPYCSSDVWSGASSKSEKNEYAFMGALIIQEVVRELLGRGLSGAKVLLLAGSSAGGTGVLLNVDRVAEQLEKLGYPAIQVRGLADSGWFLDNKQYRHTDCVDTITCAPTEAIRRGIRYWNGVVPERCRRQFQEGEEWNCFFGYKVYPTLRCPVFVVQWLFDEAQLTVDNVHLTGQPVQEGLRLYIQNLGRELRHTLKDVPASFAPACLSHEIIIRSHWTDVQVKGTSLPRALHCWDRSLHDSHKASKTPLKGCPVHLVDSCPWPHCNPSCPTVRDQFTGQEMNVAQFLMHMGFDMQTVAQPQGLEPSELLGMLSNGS

[2] = target: T1, Palmitoleoyl-protein carboxylesterase NOTUM; remark: listed apart in the source
[3] = target: T1, Palmitoleoyl-protein carboxylesterase NOTUM; remark: listed apart in the source

Row | EC50 [1] [µM] | IC50 [2] [µM] | SMILES | IC50 [3] [µM]
1 | 0.157 | 0.002 | Cc1sc2ncnc(SCC(=O)O)c2c1Cl | –
2 | – | 93.6 | CC(=O)NCCc1c[nH]c2ccc(O)cc12 [ACETYLSEROTONIN] | –
3 | – | – | Cc1ccccc1OCC(=O)Nc1cccnc1 | 33

Reference: ChEMBL document CHEMBL5149981, “Carboxylesterase Notum Is a Druggable Target to Modulate Wnt Signaling” (J Med Chem, 2021)
